Experimental data reported in paper PMC4846820, “A single active catalytic site is sufficient to promote transport in P-glycoprotein” (Scientific Reports, 2016).
Where “and” joins values, the source holds several entries; their conditions need not be identical. Equal values may be shown once. Read-outs that look alike come from different tables or passages of the source.

Columns and labels:
[1] = target: T1, Wild-type Pgp (Homo sapiens, UniProt P08183); experiment: UIC2 mAb labeling of permeabilized NIH 3T3 cells: apparent affinity of nucleotide binding
Method: (§1) Permeabilized cells (1 × 10^6 ml^−1) were pre-incubated for 20 min with nucleotides added in a broad concentration range and then further incubated for 30 min with 10 μg/ml A647-conjugated UIC2 monoclonal antibody (all at 37 °C). UIC2 mAb binding to Pgp is a reversible reaction in the presence of ATP/Mg^2+ (Supplementary Fig. S6), thus, UIC2 was applied at a quasi-saturating concentration (5Kd;UIC2; Supplementary Fig. S5) and the duration of the incubation period was sufficient to reach equilibrium binding of UIC2 (Supplementary Fig. S6).
(§2) To prevent ATP hydrolysis, ATP was added to permeabilized cells without Mg^2+ in the presence of 5 mM EDTA. Alternatively, ATP was replaced by the non-hydrolysable ATP analogue AMP-PNP/Mg^2+, or the experiment was conducted on ice. […] Following antibody labeling, samples were washed 3 times with ice-cold PBS and centrifuged for 7 min at 635 g at 4 °C. The UIC2-A647 fluorescence intensity of the cells was measured by flow cytometry and plotted as a function of the nucleotide concentration.

[2] = target: K1076M Pgp (Homo sapiens, UniProt P08183, K1076M); experiment: UIC2 mAb labeling of permeabilized cells: apparent affinity of nucleotide binding; settings: 37 °C, Mg2+
Method: as §1, §2

[3] = target: K433M Pgp (Homo sapiens, UniProt P08183, K433M); experiment: as above; settings: 37 °C, Mg2+
Method: as §1, §2

[4] = tested on: single Walker A mutant Pgps (K433M and K1076M); experiment: UIC2 mAb labeling of permeabilized cells, single mutants taken together; type: cell-based, human
Method: as §1, §2

[5] = target: T1, Wild-type Pgp; experiment: Recovery from the Vi-trapped post-hydrolysis state (UIC2 labeling); settings: data not shown
[6] = tested on: single Walker A mutant Pgp (K433M, K1076M); experiment: Vinblastine-bodipy staining and 15D3-A647 co-localization in MDCK cells; type: cell-based, human; settings: 2 mM vanadate
Method: Cells were plated in 8-well Ibidi μ-Slide (Ibidi GmbH, Martinsried, Germany) two days before the experiments to obtain nearly confluent cultures. The samples were pre-incubated with the following agents: Na-azide (10 mM) and 2-deoxy D-glucose (8 mM), Vi (2 mM) or NEM (50 μM) for 30 min and then further incubated with 100 nM vinblastine-bodipy (VBL-BPY) and 30 μg/ml A647-conjugated 15D3 anti-Pgp antibody for another 30 min at 37 °C.
Cellular localization of Pgp and VBL-BPY staining was studied by a three-laser confocal laser scanning microscope (Olympus FluoView 1000 confocal microscope based on an inverted IX-81 stand with an UPlansAPo 60 × NA 1.35 oil immersion objective, Hamburg, Germany). […] Fluorescence intensities were detected in the spectral ranges of 500–530 nm, 555–655 nm and 655–755 nm, respectively. To assess the co-localization of VBL-BPY (green) and Alexa 647-conjugated 15D3 (red) fluorescence signals, single optical slices of apical membrane surfaces were recorded for double-labeled cells. The pattern and extent of co-localization in the sections were determined by using the cross-correlation scattergrams of the green and red pixels of the images. Co-localization indices were determined from 30–50 cells (in three independent experiments). […]

[7] = target: T1, Wild-type Pgp; experiment: Nucleotide trapping kinetics (BeFx or Vi), UIC2-A647 labeling; settings: for accumulation in the trapped complex: both in WT and single Walker A mutant Pgp variants
Method: The transition state of Pgp was stabilized by the addition of ATP/Mg^2+ and vanadate (Vi) or BeFx at 37 °C. Permeabilized cells were incubated with 100 μM (for WT) or 500 μM (for K433M and K1076M) ATP/Mg^2+ and 0.5 mM Vi[70] or BeFx (200 μM BeSO4 and 1 mM NaF) in the presence or absence of substrates in PBS at 37 °C. 500 μl aliquots were taken at regular intervals and washed twice with 5 ml ice-cold PBS containing Vi or BeFx at the same concentrations that were applied previously during incubation. […] The UIC2-A647 fluorescence intensity of the samples (F) was plotted as a function of time (t). The t1/2 values representing the half-life of the UIC2-reactive Pgp conformation were calculated from an exponential fit of the data points according to the following equation:

[8] = target: T1, Wild-type Pgp
Method: Permeabilized cells trapped in the presence of ATP/Mg^2+ (100 μM for wild-type and 500 μM for single Walker A mutants) and 0.5 mM Vi were washed 3 times with ice-cold PBS and incubated in the presence or absence of ATP and/or substrates (verapamil, vinblastine) at 37 °C. 500 μl aliquots containing 2 × 10^5 cells were taken at regular intervals and washed twice with 5 ml PBS. […] At the end of incubations the samples were washed three times with ice-cold PBS and kept on ice until measurement in the flow cytometer.

[9] = tested on: MDCK cells expressing single Walker A mutant Pgp; experiment: Cytotoxic effect of vinblastine, AlamarBlue assay; type: cell-based, canine; settings: 72 h, single mutants
Method: cells/well. 24 hours later vinblastine was added at different concentrations and the plates were
further incubated for 72 h at 37 °C. The cell viability was determined using the AlamarBlue
assay (Serotec, UK) measuring the 530/590 nm fluorescence intensity of the dye in an
automated microplate reader (BioTec Synergy HT, US). The fluorescence intensities of the
samples were normalized to the fluorescence of the vinblastine untreated control sample, and
plotted as a function of vinblastine concentration. The data points are means of eight parallel
samples (±SD) from a representative experiment out of three.

[10] = target: double Walker A mutant Pgp (Homo sapiens, UniProt P08183, K1076M/K433M); settings: apical membrane, MDCK cells, 100 nM VBL-BPY
Method: The pattern and extent of co-localization in the sections were determined by using the cross-correlation scattergrams of the green and red pixels of the images. Co-localization indices were determined from 30–50 cells (in three independent experiments). The Pearson’s co-localization index (CI) provides a reliable estimate on the extent of fluorescence co-localization: CI values close to zero indicate no or a very low degree, while CI ≥ 0.5 reflects a high degree of co-localization, whereas the CI = 1 value would correspond to a full overlap between the two colours in each pixel of the image.

[11] = target: T1, Wild-type Pgp; experiment: VBL-BPY binding in permeabilized NIH 3T3 cells (confocal microscopy); settings: 5 mM AMP-PNP
Method: Cells permeabilized by Staphylococcus alpha toxin (a) or Streptolysin O (b) were treated with different concentrations of CsA, ATP/Mg^2++ vanadate (Vi) or AMP-PNP/Mg^2+ followed by co-staining with VBL-BPY and 15D3-A647. The ratio of the VBL-BPY and 15D3-A647 fluorescence intensity was determined in pixels representing the plasma membrane, selected on the basis of 15D3-A647 fluorescence intensity exceeding the threshold of 300. Nucleotide-treated samples were compared to permeabilized ATP-depleted cells (0 mM nucleotide); the values are means ± SD of three independent experiments (***P < 0.001).

Sequence of K1076M Pgp (P08183 whole entry K1076M): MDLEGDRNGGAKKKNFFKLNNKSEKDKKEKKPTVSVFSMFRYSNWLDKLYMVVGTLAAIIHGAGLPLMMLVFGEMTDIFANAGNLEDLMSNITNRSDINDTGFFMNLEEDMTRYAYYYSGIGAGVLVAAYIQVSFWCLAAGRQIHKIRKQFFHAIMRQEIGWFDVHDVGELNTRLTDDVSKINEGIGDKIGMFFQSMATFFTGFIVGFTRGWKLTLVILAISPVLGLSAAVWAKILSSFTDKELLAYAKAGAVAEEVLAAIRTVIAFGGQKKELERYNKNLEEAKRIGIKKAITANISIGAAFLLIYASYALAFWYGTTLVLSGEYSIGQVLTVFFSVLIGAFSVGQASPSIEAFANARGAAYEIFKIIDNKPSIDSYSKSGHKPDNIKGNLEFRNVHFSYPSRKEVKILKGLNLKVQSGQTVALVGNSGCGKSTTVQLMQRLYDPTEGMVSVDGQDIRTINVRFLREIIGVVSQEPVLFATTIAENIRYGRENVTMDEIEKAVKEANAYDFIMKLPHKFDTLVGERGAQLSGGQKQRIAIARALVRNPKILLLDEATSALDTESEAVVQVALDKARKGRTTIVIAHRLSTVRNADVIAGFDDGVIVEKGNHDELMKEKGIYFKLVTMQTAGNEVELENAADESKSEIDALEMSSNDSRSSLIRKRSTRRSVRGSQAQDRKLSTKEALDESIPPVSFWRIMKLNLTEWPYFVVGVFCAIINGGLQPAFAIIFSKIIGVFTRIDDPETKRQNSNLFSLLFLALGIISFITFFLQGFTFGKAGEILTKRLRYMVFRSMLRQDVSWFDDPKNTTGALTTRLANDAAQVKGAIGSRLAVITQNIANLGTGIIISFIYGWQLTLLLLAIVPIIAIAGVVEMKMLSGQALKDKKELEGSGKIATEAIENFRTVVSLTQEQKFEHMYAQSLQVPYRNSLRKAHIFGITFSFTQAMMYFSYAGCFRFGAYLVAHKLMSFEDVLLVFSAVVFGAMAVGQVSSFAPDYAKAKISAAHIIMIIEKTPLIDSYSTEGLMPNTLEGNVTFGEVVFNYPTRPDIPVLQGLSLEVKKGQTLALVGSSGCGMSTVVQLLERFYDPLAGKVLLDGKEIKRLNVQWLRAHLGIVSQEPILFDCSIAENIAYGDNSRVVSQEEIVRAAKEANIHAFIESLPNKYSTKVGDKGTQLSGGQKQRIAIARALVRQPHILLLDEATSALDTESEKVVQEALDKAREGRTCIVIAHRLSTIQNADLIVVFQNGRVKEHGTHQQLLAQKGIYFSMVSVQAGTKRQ
Sequence of K433M Pgp (P08183 whole entry K433M): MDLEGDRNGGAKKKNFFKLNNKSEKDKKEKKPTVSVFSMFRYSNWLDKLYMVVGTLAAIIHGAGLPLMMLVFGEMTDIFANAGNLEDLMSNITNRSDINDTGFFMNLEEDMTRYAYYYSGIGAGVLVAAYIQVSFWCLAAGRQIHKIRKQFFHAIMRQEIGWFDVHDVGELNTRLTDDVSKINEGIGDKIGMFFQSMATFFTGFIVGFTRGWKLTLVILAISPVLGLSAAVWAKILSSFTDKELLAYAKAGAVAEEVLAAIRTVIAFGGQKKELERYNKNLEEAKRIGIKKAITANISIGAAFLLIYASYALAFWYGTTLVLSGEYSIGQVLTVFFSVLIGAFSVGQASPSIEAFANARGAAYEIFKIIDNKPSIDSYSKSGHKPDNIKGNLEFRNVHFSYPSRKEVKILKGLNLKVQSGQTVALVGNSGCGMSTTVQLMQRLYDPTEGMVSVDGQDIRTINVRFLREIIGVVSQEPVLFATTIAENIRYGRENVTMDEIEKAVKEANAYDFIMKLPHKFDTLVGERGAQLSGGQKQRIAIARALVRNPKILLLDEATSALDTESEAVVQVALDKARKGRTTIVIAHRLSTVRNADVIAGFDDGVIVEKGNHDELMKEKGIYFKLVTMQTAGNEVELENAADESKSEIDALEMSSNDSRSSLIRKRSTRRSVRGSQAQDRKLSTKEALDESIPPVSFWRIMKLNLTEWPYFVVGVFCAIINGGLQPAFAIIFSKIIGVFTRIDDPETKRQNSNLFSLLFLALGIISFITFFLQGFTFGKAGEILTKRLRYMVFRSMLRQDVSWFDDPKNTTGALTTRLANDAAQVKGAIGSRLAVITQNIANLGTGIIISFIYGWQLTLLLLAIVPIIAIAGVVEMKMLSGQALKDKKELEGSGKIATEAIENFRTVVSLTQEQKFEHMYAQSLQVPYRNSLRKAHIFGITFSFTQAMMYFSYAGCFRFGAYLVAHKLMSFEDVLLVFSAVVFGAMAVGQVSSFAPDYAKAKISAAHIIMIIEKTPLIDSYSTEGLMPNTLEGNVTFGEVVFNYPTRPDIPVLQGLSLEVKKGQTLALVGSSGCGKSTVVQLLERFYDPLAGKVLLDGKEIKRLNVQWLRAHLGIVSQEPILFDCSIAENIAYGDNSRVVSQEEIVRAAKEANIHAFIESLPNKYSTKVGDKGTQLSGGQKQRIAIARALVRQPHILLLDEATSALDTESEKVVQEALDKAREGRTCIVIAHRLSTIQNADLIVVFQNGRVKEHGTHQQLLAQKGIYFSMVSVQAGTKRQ
T1 sequence (P08183 whole entry): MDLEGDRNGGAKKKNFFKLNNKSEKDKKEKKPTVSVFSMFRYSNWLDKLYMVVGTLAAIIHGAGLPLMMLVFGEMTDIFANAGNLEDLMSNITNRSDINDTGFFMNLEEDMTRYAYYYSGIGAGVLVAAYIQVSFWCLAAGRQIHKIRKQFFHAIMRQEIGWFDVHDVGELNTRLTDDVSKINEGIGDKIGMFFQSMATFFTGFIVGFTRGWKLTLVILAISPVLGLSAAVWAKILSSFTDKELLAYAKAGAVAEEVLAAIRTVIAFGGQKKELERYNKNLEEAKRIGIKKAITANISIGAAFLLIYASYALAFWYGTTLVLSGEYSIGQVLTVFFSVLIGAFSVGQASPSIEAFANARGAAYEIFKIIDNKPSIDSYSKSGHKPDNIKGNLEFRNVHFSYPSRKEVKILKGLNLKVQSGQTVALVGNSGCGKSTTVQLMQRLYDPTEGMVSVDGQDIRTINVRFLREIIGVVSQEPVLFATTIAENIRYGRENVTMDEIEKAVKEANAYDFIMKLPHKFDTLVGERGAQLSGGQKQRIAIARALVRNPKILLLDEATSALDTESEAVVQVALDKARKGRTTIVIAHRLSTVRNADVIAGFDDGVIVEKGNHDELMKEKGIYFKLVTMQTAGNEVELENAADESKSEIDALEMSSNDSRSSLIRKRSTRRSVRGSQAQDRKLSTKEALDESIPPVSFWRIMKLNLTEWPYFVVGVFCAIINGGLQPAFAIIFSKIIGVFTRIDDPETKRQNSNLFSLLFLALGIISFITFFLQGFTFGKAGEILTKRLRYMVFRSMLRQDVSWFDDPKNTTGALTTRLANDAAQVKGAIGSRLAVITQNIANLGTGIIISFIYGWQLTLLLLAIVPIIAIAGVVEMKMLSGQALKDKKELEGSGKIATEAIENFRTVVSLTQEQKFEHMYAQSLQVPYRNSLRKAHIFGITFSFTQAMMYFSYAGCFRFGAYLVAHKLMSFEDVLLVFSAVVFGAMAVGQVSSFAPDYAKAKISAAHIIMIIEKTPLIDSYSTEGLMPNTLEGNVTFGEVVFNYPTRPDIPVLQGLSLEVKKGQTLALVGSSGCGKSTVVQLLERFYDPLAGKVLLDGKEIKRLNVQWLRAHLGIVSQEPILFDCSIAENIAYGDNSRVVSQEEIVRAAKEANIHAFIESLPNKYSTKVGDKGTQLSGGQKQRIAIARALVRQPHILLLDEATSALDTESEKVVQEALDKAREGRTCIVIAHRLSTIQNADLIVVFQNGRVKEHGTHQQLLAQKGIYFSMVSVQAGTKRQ
Sequence of double Walker A mutant Pgp (P08183 whole entry K433M/K1076M): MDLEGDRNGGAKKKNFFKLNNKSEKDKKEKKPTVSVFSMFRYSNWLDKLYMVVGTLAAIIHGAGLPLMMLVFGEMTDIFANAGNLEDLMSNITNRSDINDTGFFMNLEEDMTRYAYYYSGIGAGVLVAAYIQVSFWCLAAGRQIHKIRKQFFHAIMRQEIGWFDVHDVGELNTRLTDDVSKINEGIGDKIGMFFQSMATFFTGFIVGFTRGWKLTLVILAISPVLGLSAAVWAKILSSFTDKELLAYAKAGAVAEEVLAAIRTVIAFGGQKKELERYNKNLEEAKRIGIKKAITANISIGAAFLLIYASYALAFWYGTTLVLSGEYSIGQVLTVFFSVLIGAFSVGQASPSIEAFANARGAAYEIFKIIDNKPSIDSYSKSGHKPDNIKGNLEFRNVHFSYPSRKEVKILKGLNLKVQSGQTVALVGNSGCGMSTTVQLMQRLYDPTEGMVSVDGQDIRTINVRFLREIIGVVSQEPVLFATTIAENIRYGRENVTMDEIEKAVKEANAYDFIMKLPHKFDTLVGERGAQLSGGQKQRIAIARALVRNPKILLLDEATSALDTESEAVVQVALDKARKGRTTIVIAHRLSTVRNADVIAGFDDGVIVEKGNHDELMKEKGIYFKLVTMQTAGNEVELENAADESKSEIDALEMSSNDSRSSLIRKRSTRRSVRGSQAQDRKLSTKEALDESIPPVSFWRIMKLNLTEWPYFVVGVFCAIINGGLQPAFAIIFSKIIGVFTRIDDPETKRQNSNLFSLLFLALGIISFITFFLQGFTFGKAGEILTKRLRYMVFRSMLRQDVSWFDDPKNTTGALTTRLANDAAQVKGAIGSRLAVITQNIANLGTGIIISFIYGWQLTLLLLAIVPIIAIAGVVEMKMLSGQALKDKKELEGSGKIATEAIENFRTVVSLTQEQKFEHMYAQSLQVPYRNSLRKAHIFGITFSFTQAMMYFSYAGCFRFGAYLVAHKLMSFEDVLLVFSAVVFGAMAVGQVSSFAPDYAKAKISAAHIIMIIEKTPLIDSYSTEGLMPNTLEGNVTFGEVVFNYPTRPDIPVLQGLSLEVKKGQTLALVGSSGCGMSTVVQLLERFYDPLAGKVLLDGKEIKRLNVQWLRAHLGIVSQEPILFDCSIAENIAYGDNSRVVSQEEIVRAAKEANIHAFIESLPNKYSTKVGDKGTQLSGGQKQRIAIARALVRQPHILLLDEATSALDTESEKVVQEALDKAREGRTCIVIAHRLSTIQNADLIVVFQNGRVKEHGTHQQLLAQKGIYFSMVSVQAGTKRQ

With `Nc1ncnc2c1ncn2[C@@H]1O[C@H](COP(=O)(O)OP(=O)(O)OP(=O)(O)O)[C@@H](O)[C@H]1O` [ATP] as the compound, how does the Hill slope ([1]; 4 °C, Mg2+) read?
Its Hill slope is 0.66 ± 0.17.

And the “KA (apparent nucleotide affinity) for competing UIC2 labeling” value (shortened to “KA (apparent nucleotide affinity)”) ([1]; 4 °C, Mg2+)?
The value was 2.70 ± 1.83 mM.

And the Hill slope ([1]; 37 °C, Mg2+)?
The Hill slope was 0.77 ± 0.20.

What about the “KA (apparent nucleotide affinity)” value ([1]; 37 °C, Mg2+, 10 μg/ml UIC2) of the same compound?
The value was 0.25 ± 0.16 mM and 0.25 mM.

And the Hill slope ([1]; 37 °C, no Mg2+)?
The Hill slope was 1.60 ± 0.22.

What about the “KA (apparent nucleotide affinity)” value ([1]; 37 °C, no Mg2+) of the same compound?
The value was 1.92 ± 0.33 mM.

And the Kd ([1]; read-out: Kd;ATP, dissociation constant of ATP from inward-facing Pgp, estimated with Eq. 7 of the kinetic model from KA and T2/T1;min)?
Its Kd is ~700 µM.

And the Km ([1]; read-out: predicted KM for ATP-hydrolysis and substrate transport in the absence of UIC2, from Eq. 3 of the kinetic model)?
The Km was ~60 µM.

And the Hill slope [2]?
Its Hill slope is 0.89 ± 0.33.

And the “KA (apparent nucleotide affinity)” value [2]?
Its value is 2.03 ± 0.91 mM.

And the Hill slope [3]?
The Hill slope was 0.90 ± 0.32.

And the “KA (apparent nucleotide affinity)” value [3]?
Its value is 2.08 ± 1.04 mM.

What about the “fraction of UIC2 label persisting in saturating ATP” value ([4]; 10 μg/ml UIC2) of the same compound?
The value was ~ 50%.

What about the “KA (apparent affinity for competing UIC2 labeling)” value ([4]; at [UIC2] about 5Kd;UIC2) of the same compound?
The value was ~2.5 mM.

What about the Kd ([4]; estimated with Eq. 7 of the kinetic model, read-out: Kd;ATP, dissociation constant of ATP from inward-facing Pgp) of the same compound?
The Kd was ~5000 µM.

What about the Km ([4]; from Eq. 3 of the kinetic model, read-out: predicted KM for ATP-hydrolysis and substrate transport in the absence of UIC2) of the same compound?
The Km was ~700 µM.

And the “decrease in apparent affinity for ATP of the single mutants” value ([4]; relative to WT)?
The value was ~ 10 fold.

And the “effect on release of the tightly bound nucleotide from the Vi-trapped complex” value [5]?
The value was “not influenced”.

Which results are given for `[O]=[V]([O-])([O-])[O-]` [Vi, orthovanadate]?
effect on VBL-BPY binding to single Walker A mutants [6]: fully suppressed; effect of Vi on apparent affinity ([1]; ATP hydrolysis prevented (Fig. 1b-d)): not influenced at all; effect of vanadate on apparent affinity ([1]; hydrolysis conditions: 37 °C, ATP/Mg2+): increased the apparent affinity; increase in the apparent affinity of the single mutants to ATP on addition of vanadate ([4]; ATP/Mg2+, 37 °C): 5–10 fold; t1/2 of Vi trapping ([7]; n = 6, Pgp variant not given): 3.92 ± 0.87 min

How did the “accumulation in the trapped complex” value [7] turn out when `COC(=O)c1ccccc1-c1c2ccc(=N)cc-2oc2cc(N)ccc12` [rhodamine 123] was run?
Its value is “accelerated”.

Which “effect on release of the tightly bound nucleotide from the Vi-trapped complex” value [8] does the source give for `CC[C@]1(O)C[C@@H]2CN(CCc3c([nH]c4ccccc34)[C@@](C(=O)OC)(c3cc4c(cc3OC)N(C)[C@H]3[C@@](O)(C(=O)OC)[C@H](OC(C)=O)[C@]5(CC)C=CCN6CC[C@]43[C@@H]65)C2)C1` [vinblastine] here?
Its value is “not influenced”.

What about the “resistance against the cytotoxic effect of vinblastine” value [9] of the same compound?
Its value is “conferred resistance”.

What about the “accumulation in the trapped complex” value [7] of the same compound?
The value was “accelerated”.

What about the “apparent affinity for ATP in the presence of substrate” value ([7]; up to 200 μM vinblastine, BeFx, 20 min, 37 °C) of the same compound?
The value was “did not change”.

`CCC1(O)CC2CN(CCc3c([nH]c4ccccc34)C(C(=O)OC)(c3cc4c(cc3OC)N(C)C3C(O)(C(=O)OC)C(OC(=O)CCC5=[N+]6C(=Cc7c(C)cc(C)n7[B-]6(F)F)C=C5)C5(CC)C=CCN6CCC43C65)C2)C1` (stereo not drawn) [VBL-BPY, BODIPY FL vinblastine] was tested. Which “Pearson's cross-correlation coefficient between VBL-BPY and 15D3 anti-Pgp antibody signals” value [10] did it give?
Its value is ~ 0.8.

How did the “co-localization of VBL-BPY and Pgp” value [11] turn out when `Nc1ncnc2c1ncn2[C@@H]1O[C@H](COP(=O)(O)OP(=O)(O)NP(=O)(O)O)[C@@H](O)[C@H]1O` [AMP-PNP] was run?
Its value is “significant decrease”.

What about the Hill slope ([1]; 37 °C, Mg2+) of the same compound?
The Hill slope was 1.75 ± 0.34.

And the “KA (apparent nucleotide affinity)” value ([1]; 37 °C, Mg2+, 10 μg/ml UIC2)?
The value was 0.27 ± 0.14 mM.

And the Hill slope [2]?
Its Hill slope is 1.68 ± 0.23.

And the “KA (apparent nucleotide affinity)” value [2]?
Its value is 3.01 ± 0.92 mM.

What about the Hill slope [3] of the same compound?
Its Hill slope is 2.06 ± 0.29.

And the “KA (apparent nucleotide affinity)” value [3]?
The value was 3.40 ± 1.42 mM.
